14 compounds from patent publication US20230382909A1, “BICYCLIC COMPOUNDS” (Aligos Therapeutics, Inc., priority 2022, published 2023) can be followed below.

The subject of one series is HBV. In words: HBV-DNA antiviral assay using HepG2.117 cells. The class given is cell-based, HBV genotype D. The conditions noted are these: Hepatitis B virus, HepG2.117, 72 h. Here is the method: (§1) The following assay procedure describes the HBV antiviral assay, using HepG2.117 cells, which carry a stably integrated genotype D HBV genome under the control of a Tet-off promoter, and intracellular HBV DNA quantification as endpoint. Cell viability is assessed in parallel by measuring the intracellular ATP content using CellTiter-Glo 2.0 (Promega).
On day 0, HepG2.117 cells (which are maintained in routine cell culture with doxycycline present in the medium at a final concentration of 1 μg/mL) are seeded in 96-well plates (white with clear bottom) at a density of 2.0×10^4 cells/well (0.1 mL/well) in medium without doxycycline to induce pgRNA transcription and subsequent formation of HBV particles. The cells are incubated at 37° C. and 5% CO2.
(§2) On day 1, medium is removed from each well, the test articles are diluted in culture medium without doxcycyline and 100 μL was added to cell culture wells (9 concentrations, 4-fold dilution). For each plate, 6 untreated (merely DMSO) wells are included. The final concentration of DMSO in the culture medium is 2%. Each plate is prepared in duplicate (one for HBV DNA extraction, one for CellTiter-Glo 2.0 measurement). The cells are incubated at 37° C. and 5% CO2 for 3 days.
(§3) On day 4, cell viability is assessed using CellTiter-Glo 2.0 and cell lysates are prepared for HBV DNA extraction and subsequent quantification by qPCR.
HBV DNA Quantification by qPCR
Medium is removed from each well and 100 μL of 0.33% NP-40 in H2O was added to each well. Plates are sealed, incubated at 4° C. for 5 mins, vortexed extensively and centrifuged briefly. Next, 35 μL of lysate is added to 65 μL QuickExtract DNA Extraction Solution (Epicentre) in a PCR plate for each well. PCR plate is incubated at 65° C. for 6 mins, 98° C. for 2 mins and finally cooled to 4° C. HBV DNA is then quantified by qPCR with HBV-specific primers and probes as specified in Table 3 using the Bio-Rad SSOAdvanced Universal Probes Supermix on a CFX96 machine (Bio-Rad). The PCR cycle program consisted of 95° C. for 3 mins, followed by 40 cycles at 95° C. for 10 sec and 60° C. for 30 sec.
A DNA standard is prepared by dilution of an IDT gBlock corresponding to the amplicon with concentrations ranging from 10^2 to 10^8 copies/input (i.e., per 4 μL) and used to generate a standard curve by plotting Cq values vs. HBV DNA standard concentration. The quantity of HBV DNA in each sample is determined by interpolating from the standard curve.
(§4) Cell viability is calculated as follows: % Cell viability=(luminescence value of test sample)/(average luminescence value of 2% DMSO control)×100%. HBV DNA inhibition was calculated as follows: 100−(HBV DNA copy number of test sample)/(average HBV DNA copy number of 2% DMSO control)×100%. No normalization to entecavir is required due to the excellent dynamic window of this assay. The CC50, EC50 and EC9o values were determined by dose-response curves fitted using non-linear regression.

A short description of series [1]: Cell viability by CellTiter-Glo 2.0 (intracellular ATP content) in HepG2.117 cells. The series is classed as cell-based. Particulars: human, CellTiter-Glo 2.0, 3 days incubation. The protocol: as §1, §2, §3
Using the other plates, the cell viability is quantified by CellTiter-Glo 2.0 according to the manufacturer's manual. In brief, 100 μL of reagent solution is added to the culture plates and shaken for 2′. The plates are incubated at rt for 10 min and luminescence signal is subsequently measured on a VarioSkan Lux (ThermoFisher) plate reader.
as §4

Molecules are shown by their SMILES. Structures can show the parent of a compound that is named as a salt. Where only a bound is given, the exact number is not on record here.

The compound `Cc1cc(C)n(-c2nc3c(c(=O)n2-c2ccc4c(c2)ncn4C)C[C@@H](C)N(C(=O)c2ccc(Br)c(C(F)(F)F)c2)C3)n1` [Compound 1, (R)-7-(4-bromo-3-(trifluoromethyl)benzoyl)-2-(3,5-dimethyl-1H-pyrazol-1-yl)-6-methyl-3-(1-methyl-1H-benzo[d]imidazol-5-yl)-5,6,7,8-tetrahydropyrido[3,4-d]pyrimidin-4(3H)-one] came in with an EC50 in the series with HBV of less than 50 nM. In series [1], the half-maximal cytotoxic concentration (CC50) at 3 days was more than 500 nM.
Regarding `CNC(=O)c1ccc(-n2c(-n3nc(C)cc3C)nc3c(c2=O)C[C@@H](C)N(C(=O)c2ccc(Br)c(C(F)(F)F)c2)C3)cc1Cl` [Compound 2, (R)-4-(7-(4-bromo-3-(trifluoromethyl)benzoyl)-2-(3,5-dimethyl-1H-pyrazol-1-yl)-6-methyl-4-oxo-5,6,7,8-tetrahydropyrido[3,4-d]pyrimidin-3(4H)-yl)-2-chloro-N-methylbenzamide], the EC50 in the series on HBV was less than 50 nM. For the same compound, the CC50 at 3 days in series [1] is more than 500 nM.
Taken in the same sequence, the figures for `Cc1cc(C)n(-c2nc3c(c(=O)n2-c2ccc4c(ncn4C)n2)C[C@@H](C)N(C(=O)c2ccc(Br)c(C(F)(F)F)c2)C3)n1` [Compound 3, (R)-7-(4-bromo-3-(trifluoromethyl)benzoyl)-2-(3,5-dimethyl-1H-pyrazol-1-yl)-6-methyl-3-(1-methyl-1H-imidazo[4,5-b]pyridin-5-yl)-5,6,7,8-tetrahydropyrido[3,4-d]pyrimidin-4(3H)-one] were less than 50 nM and more than 500 nM.
For the compound `Cc1cc(C)n(-c2nc3c(c(=O)n2-c2ccc(O)cc2)C[C@@H](C)N(C(=O)c2ccc(Br)c(C(F)(F)F)c2)C3)n1` [Compound 4, (R)-7-(4-bromo-3-(trifluoromethyl)benzoyl)-2-(3,5-dimethyl-1H-pyrazol-1-yl)-3-(4-hydroxyphenyl)-6-methyl-5,6,7,8-tetrahydropyrido[3,4-d]pyrimidin-4(3H)-one], the concentration for a half-maximal effect (EC50) in the series on HBV is less than 50 nM. The compound also gave a CC50 at 3 days in series [1] of more than 500 nM.
For `Cc1cc(C)n(-c2nc3c(c(=O)n2-c2ccc(OCC(N)=O)cc2)C[C@@H](C)N(C(=O)c2ccc(Br)c(C(F)(F)F)c2)C3)n1` [Compound 5, (R)-2-(4-(7-(4-bromo-3-(trifluoromethyl)benzoyl)-2-(3,5-dimethyl-1H-pyrazol-1-yl)-6-methyl-4-oxo-5,6,7,8-tetrahydropyrido[3,4-d]pyrimidin-3(4H)-yl)phenoxy)acetamide] the same measures were less than 50 nM and more than 500 nM.
Taken in the same sequence, the figures for `Cc1cc(C)n(-c2nc3c(c(=O)n2-c2ccc(OC[C@@H](O)CO)cc2)C[C@@H](C)N(C(=O)c2ccc(Br)c(C(F)(F)F)c2)C3)n1` [Compound 6, (R)-7-(4-bromo-3-(trifluoromethyl)benzoyl)-3-(4-((S)-2,3-dihydroxypropoxy)phenyl)-2-(3,5-dimethyl-1H-pyrazol-1-yl)-6-methyl-5,6,7,8-tetrahydropyrido[3,4-d]pyrimidin-4(3H)-one] were 50 to 500 nM and more than 500 nM.
In turn, `Cc1cc(C)n(-c2nc3c(c(=O)n2-c2ccc(OC[C@H](O)CO)cc2)C[C@@H](C)N(C(=O)c2ccc(Br)c(C(F)(F)F)c2)C3)n1` [Compound 7, (R)-7-(4-bromo-3-(trifluoromethyl)benzoyl)-3-(4-((R)-2,3-dihydroxypropoxy)phenyl)-2-(3,5-dimethyl-1H-pyrazol-1-yl)-6-methyl-5,6,7,8-tetrahydropyrido[3,4-d]pyrimidin-4(3H)-one] had a concentration for a half-maximal effect (EC50) in the series with HBV of less than 50 nM. Moreover, in series [1], the CC50 at 3 days was more than 500 nM.
As to `Cc1cc(C)n(-c2nc3c(c(=O)n2-c2ccc(NC[C@@H](C)O)nc2)C[C@@H](C)N(C(=O)c2ccc(Br)c(C(F)(F)F)c2)C3)n1` [Compound 8, (R)-7-(4-bromo-3-(trifluoromethyl)benzoyl)-2-(3,5-dimethyl-1H-pyrazol-1-yl)-3-(6-(((R)-2-hydroxypropyl)amino)pyridin-3-yl)-6-methyl-5,6,7,8-tetrahydropyrido[3,4-d]pyrimidin-4(3H)-one], the EC50 in the series with HBV is less than 50 nM. The compound also yielded a CC50 at 3 days in series [1] of more than 500 nM.
The compound `Cc1cc(C)n(-c2nc3c(c(=O)n2-c2ccc(N4CC[C@@H](O)C4)nc2)C[C@@H](C)N(C(=O)c2ccc(Br)c(C(F)(F)F)c2)C3)n1` [Compound 9, (R)-7-(4-bromo-3-(trifluoromethyl)benzoyl)-2-(3,5-dimethyl-1H-pyrazol-1-yl)-3-(6-((R)-3-hydroxypyrrolidin-1-yl)pyridin-3-yl)-6-methyl-5,6,7,8-tetrahydropyrido[3,4-d]pyrimidin-4(3H)-one] came in with an EC50 in the series with HBV of less than 50 nM. Besides, the CC50 at 3 days in series [1] is more than 500 nM.
`Cc1cc(C)n(-c2nc3c(c(=O)n2-c2ccc(N4CCNCC4)nc2)C[C@@H](C)N(C(=O)c2ccc(Br)c(C(F)(F)F)c2)C3)n1` [Compound 10, (R)-7-(4-bromo-3-(trifluoromethyl)benzoyl)-2-(3,5-dimethyl-1H-pyrazol-1-yl)-6-methyl-3-(6-(piperazin-1-yl)pyridin-3-yl)-5,6,7,8-tetrahydropyrido[3,4-d]pyrimidin-4(3H)-one hydrochloride] registered a concentration giving a half-maximal response (EC50) in the series with HBV of less than 50 nM. Moreover, the CC50 at 3 days in series [1] is more than 500 nM.
Taken in the same sequence, the figures for `Cc1cc(C)n(-c2nc3c(c(=O)n2-c2ccc(N4CCN(C)CC4)nc2)C[C@@H](C)N(C(=O)c2ccc(Br)c(C(F)(F)F)c2)C3)n1` [Compound 11, (R)-7-(4-bromo-3-(trifluoromethyl)benzoyl)-2-(3,5-dimethyl-1H-pyrazol-1-yl)-6-methyl-3-(6-(4-methylpiperazin-1-yl)pyridin-3-yl)-5,6,7,8-tetrahydropyrido[3,4-d]pyrimidin-4(3H)-one] were less than 50 nM and more than 500 nM.
`Cc1cc(C)n(-c2nc3c(c(=O)n2-c2ccc(OC[C@H](C)OP(=O)(O)O)cc2)C[C@@H](C)N(C(=O)c2ccc(Br)c(C(F)(F)F)c2)C3)n1` [Compound 12, (S)-1-(4-((R)-7-(4-bromo-3-(trifluoromethyl)benzoyl)-2-(3,5-dimethyl-1H-pyrazol-1-yl)-6-methyl-4-oxo-5,6,7,8-tetrahydropyrido[3,4-d]pyrimidin-3(4H)-yl)phenoxy)propan-2-yl dihydrogen phosphate]: the EC50 with HBV lay within 50 to 500 nM. Besides, the half-maximal cytotoxic concentration (CC50) at 3 days in series [1] was more than 500 nM.
Taken in the same sequence, the figures for `Cc1cc(C)n(-c2nc3c(c(=O)n2-c2ccc4c(cnn4C)c2)C[C@@H](C)N(C(=O)c2ccc(Br)c(C(F)(F)F)c2)C3)n1` [Compound 13, (6R)-7-[4-bromo-3-(trifluoromethyl)benzoyl]-2-(3,5-dimethylpyrazol-1-yl)-6-methyl-3-(1-methylindazol-5-yl)-6,8-dihydro-5H-pyrido[3,4-d]pyrimidin-4-one] were less than 50 nM and more than 500 nM.
In the series on HBV, `Cc1cc(C)n(-c2nc3c(c(=O)n2-c2ccc(OC[C@@H](C)O)cc2)C[C@@H](C)N(C(=O)c2ccc(Br)c(C(F)(F)F)c2)C3)n1` [Compound 14, (6R)-7-[4-bromo-3-(trifluoromethyl)benzoyl]-2-(3,5-dimethylpyrazol-1-yl)-3-[4-[(2R)-2-hydroxypropoxy]phenyl]-6-methyl-6,8-dihydro-5H-pyrido[3,4-d]pyrimidin-4-one] yielded an EC50 of less than 50 nM. Also, the CC50 at 3 days in series [1] was more than 500 nM.

One may read the EC50 as the concentration that produces a half-maximal response. A high value points to lower potency in that assay. What is called CC50 is the concentration at which the toxic effect on the cells reaches its halfway point. Higher therefore signals lower toxicity to the cells.
